These results are taken from publication PMC4422330 (Bioorganic & medicinal chemistry letters, 2008).

The target in series [1] is T1, pfNDH2 (Plasmodium falciparum, UniProt Q8I302). Briefly: biochemical. The class given is biochemical. The following applies: for inhibition of pfNDH2 activity (in words): purified recombinant pfNDH2, concentrations of up to 10 µM.
The next series has as its target T2, pfDHOD (Plasmodium falciparum, UniProt Q08210).
T2 sequence (Q08210 24-569): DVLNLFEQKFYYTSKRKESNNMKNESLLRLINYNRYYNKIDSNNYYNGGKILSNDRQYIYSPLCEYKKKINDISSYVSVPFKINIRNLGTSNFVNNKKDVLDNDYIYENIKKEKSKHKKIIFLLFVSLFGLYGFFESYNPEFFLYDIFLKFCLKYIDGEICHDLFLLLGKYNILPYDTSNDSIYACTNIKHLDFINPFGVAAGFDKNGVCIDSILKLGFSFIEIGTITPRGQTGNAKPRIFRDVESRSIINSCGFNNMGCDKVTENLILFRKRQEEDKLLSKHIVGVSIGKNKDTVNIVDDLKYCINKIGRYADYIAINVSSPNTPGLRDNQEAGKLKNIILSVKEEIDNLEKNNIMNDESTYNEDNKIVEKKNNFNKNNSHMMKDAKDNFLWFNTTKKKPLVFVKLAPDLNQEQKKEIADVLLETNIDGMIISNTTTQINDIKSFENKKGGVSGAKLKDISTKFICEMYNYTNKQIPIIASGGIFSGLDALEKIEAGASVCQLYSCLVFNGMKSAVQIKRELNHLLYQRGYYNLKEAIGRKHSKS
Briefly: biochemical.

For series [2], the target named is T1, pfNDH2. Briefly: Kinetic properties of purified pfNDH2 with electron-accepting substrates. The settings on record: in vitro, absence of membrane components. The class given is biochemical.
The next series concerns P. falciparum DD2-scDHOD. The class given is cell-based, Plasmodium falciparum. The following applies: drug concentration of up to 10 µM.
Series [3] relates to O=C1C=CC(=Nc2cc(Cl)c(O)c(Cl)c2)C=C1. As to the kind of experiment: Kinetic properties of purified pfNDH2 with electron-accepting substrates. The class given is biochemical, Plasmodium falciparum. The following applies: pH 8.0; 100.0 °C.

The term IC50 denotes the point on the concentration scale where inhibition reaches its midpoint. A lower IC50 goes with greater potency. In general, Km refers to the substrate concentration at which the rate is half of its maximum. As usually defined, the kcat is the number of substrate molecules converted per active site and unit of time at saturation.

For the compound `O=C1C(O)=C([C@H]2CC[C@H](c3ccc(Cl)cc3)CC2)C(=O)c2ccccc21` [Atovaquone], the IC50 on pfNDH2 [1] and against pfDHOD was over 10 µM throughout. For `O=c1cc(-c2ccccc2)oc2ccccc12` [Flavone], the concentration for half-maximal inhibition (IC50) against pfNDH2 [1] and on pfDHOD was over 10 µM throughout. For the compound `C=C(C)[C@H]1Cc2c(ccc3c2O[C@@H]2COc4cc(OC)c(OC)cc4[C@@H]2C3=O)O1` [Rotenone], the IC50 at pfNDH2 [1] and against pfDHOD was over 10 µM throughout. `COC1=C(OC)C(=O)C(C)=CC1=O` [CoQ0]: the “utilization as electron acceptor substrate by pfNDH2 (in words)” value (“utilization” for short) at pfNDH2 [2] is given as “detectable catalysis”. For `C[C@@H]1CC[C@H]2[C@@H](C)C(=O)O[C@@H]3O[C@@]4(C)CC[C@@H]1[C@]32OO4` [Artemisinin], the IC50 against pfNDH2 [1] and at pfDHOD was over 10 µM in each case. Moreover, the “inhibition of pfNDH2 activity (in words)” value on pfNDH2 [1] was “did not perturb catalysis”. As for `CCCCCCCCCCC1=C(C)C(=O)C(OC)=C(OC)C1=O` [CoQD], the “utilization” value at pfNDH2 [2] is reported as “not efficiently utilized”. For `COC1=C(OC)C(=O)C(CC=C(C)C)=C(C)C1=O` [CoQ1], at pfNDH2 [2], the “utilization” value was “detectable catalysis”. Take `CCCCCCCCCCCCc1cc(=O)c2ccccc2n1O` [HDQ, 1-hydroxy-2-dodecyl-4(1H)quinolone]: at pfNDH2 [1], the IC50 was over 10 µM and the “inhibition of pfNDH2 activity (in words)” value is listed as “do not inhibit”. Also, the “proliferation of the scDHOD-expressing transgenic strain (in words)” value in the series with P. falciparum DD2-scDHOD was “unaffected”.

On to pfNDH2 (Plasmodium falciparum 3D7), for which, in series [3], the Km was found to be 4.6 µM and the kcat was 0.0317 s⁻¹. Take `COC1=C(OC)C(=O)C(C/C=C(\C)CC/C=C(\C)CC/C=C(\C)CCC=C(C)C)=C(C)C1=O` [CoQ4]: the “utilization” value at pfNDH2 [2] is on record as “not efficiently utilized”. As to `[Cl-].c1ccc([I+]c2ccccc2)cc1` [IDP, diphenyliodonium chloride], on pfNDH2 [1], the IC50 is over 10 µM and the “inhibition of pfNDH2 activity (in words)” value is recorded as “do not inhibit”. Besides, the IC50 on pfDHOD is over 10 µM.
